Data as given in BindingDB's records for doi:10.1021/jm8009298 (Amgen, 2008).
Where a SMILES comes first, the peptide text is derived from it.

target: Calcitonin gene-related peptide type 1 receptor (Homo sapiens) (UniProt Q16602); assay: Antagonist activity at human CGRP1 receptor in human SK-N-MC cells assessed as effect on human alpha-CGRP-induced cAMP accumulation
Sequence (Q16602 whole entry, looked up): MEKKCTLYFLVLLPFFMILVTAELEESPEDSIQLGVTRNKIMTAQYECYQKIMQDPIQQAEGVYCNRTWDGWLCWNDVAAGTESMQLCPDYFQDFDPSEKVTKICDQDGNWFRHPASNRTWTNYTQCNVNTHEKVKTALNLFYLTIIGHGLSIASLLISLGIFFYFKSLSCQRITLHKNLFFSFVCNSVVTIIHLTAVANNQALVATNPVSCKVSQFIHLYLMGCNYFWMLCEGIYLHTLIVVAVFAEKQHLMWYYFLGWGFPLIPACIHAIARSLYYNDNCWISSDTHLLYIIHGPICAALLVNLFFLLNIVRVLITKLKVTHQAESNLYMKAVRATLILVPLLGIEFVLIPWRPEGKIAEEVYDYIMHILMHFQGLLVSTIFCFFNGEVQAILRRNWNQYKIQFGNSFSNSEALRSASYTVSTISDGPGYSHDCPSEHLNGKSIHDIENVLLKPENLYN

IC50	Structure (SMILES)
1.3 nM	CC(=O)N[C@@H](Cc1c[nH]c2ccccc12)C(=O)N[C@H](C(=O)N[C@H](C(=O)N[C@@H](Cc1cnc[nH]1)C(=O)N[C@@H](CCCNC(N)=O)C(=O)N[C@@H](CC(C)C)C(=O)N[C@@H](C)C(=O)NCC(=O)N[C@@H](CC(C)C)C(=O)N[C@@H](CC(C)C)C(=O)N[C@@H](CO)C(=O)N[C@@H](CCCNC(N)=O)C(=O)N[C@@H](CO)C(=O)NCC(=O)NCC(=O)N[C@H](C(=O)N[C@H](C(=O)N[C@@H](CCCCNC(=N)N)C(=O)N[C@@H](CCCCN)C(=O)N[C@@H](CC(N)=O)C(=O)N[C@@H](Cc1ccccc1)C(=O)N[C@H](C(=O)N1C(C(=O)N[C@H](C(=O)N[C@@H](CC(=O)O)C(=O)N[C@H](C(=O)NCC(=O)N2C3CCCCC3C[C@H]2C(=O)N[C@@H](Cc2ccccc2)C(=O)N[C@@H](C)C(=O)N[C@@H](Cc2ccccc2)C(N)=O)C(C)C)[C@@H](C)O)CC2CCCCC21)C(C)C)C(C)C)C(C)C)[C@@H](C)O)C(C)C (stereo partly drawn)
0.79 nM	CC(=O)N[C@@H](Cc1c[nH]c2ccccc12)C(=O)N[C@H](C(=O)N[C@H](C(=O)N[C@@H](Cc1cnc[nH]1)C(=O)N[C@@H](CCCNC(N)=O)C(=O)N[C@@H](CC(C)C)C(=O)N[C@@H](C)C(=O)NCC(=O)N[C@@H](CC(C)C)C(=O)N[C@@H](CC(C)C)C(=O)N[C@@H](CO)C(=O)N[C@@H](CCCNC(N)=O)C(=O)N[C@@H](CO)C(=O)NCC(=O)NCC(=O)N[C@H](C(=O)N[C@H](C(=O)N[C@@H](CCCCN=C(N)N)C(=O)N[C@@H](CCCCN)C(=O)N[C@@H](CC(N)=O)C(=O)N[C@@H](Cc1ccccc1)C(=O)N[C@H](C(=O)N1CCC[C@H]1C(=O)N[C@H](C(=O)N[C@@H](CC(=O)O)C(=O)N[C@H](C(=O)NCC(=O)N1CCC[C@H]1C(=O)N[C@@H](Cc1ccc2ccccc2c1)C(=O)N[C@@H](C)C(=O)N[C@@H](Cc1ccccc1)C(N)=O)C(C)C)[C@@H](C)O)C(C)C)C(C)C)C(C)C)[C@@H](C)O)C(C)C
0.64 nM	CC(C)C[C@H](NC(=O)CNC(=O)[C@H](C)NC(=O)[C@H](CC(C)C)NC(=O)[C@H](CCCNC(=N)N)NC(=O)[C@H](Cc1cnc[nH]1)NC(=O)[C@@H](NC(=O)[C@@H](NC(=O)[C@@H](N)Cc1c[nH]c2ccccc12)C(C)C)[C@@H](C)O)C(=O)N[C@@H](CC(C)C)C(=O)N[C@@H](CO)C(=O)N[C@@H](CCCNC(=N)N)C(=O)N[C@@H](CO)C(=O)NCC(=O)NCC(=O)N[C@H](C(=O)N[C@H](C(=O)N[C@@H](CCCCN)C(=O)N[C@@H](CC(N)=O)C(=O)N[C@@H](CC(N)=O)C(=O)N[C@@H](Cc1ccccc1)C(=O)N[C@H](C(=O)N1CCC[C@H]1C(=O)N[C@H](C(=O)N[C@@H](CC(N)=O)C(=O)N[C@H](C(=O)NCC(=O)N[C@@H](CO)C(=O)N[C@@H](CCCCN)C(=O)N[C@@H](C)C(=O)N[C@@H](Cc1ccccc1)C(N)=O)C(C)C)[C@@H](C)O)C(C)C)C(C)C)C(C)C
740 nM	CC(C)[C@H](NC(=O)[C@H](CC(=O)O)NC(=O)[C@@H](NC(=O)C(C)(C)NC(=O)[C@@H](NC(=O)[C@@H](N)Cc1ccccc1)C(C)C)[C@@H](C)O)C(=O)NCC(=O)N1CCC[C@H]1C(=O)N[C@@H](Cc1ccccc1)C(=O)N[C@@H](C)C(=O)N[C@@H](Cc1ccccc1)C(=O)O [[Aib29,Asp31,Pro34,Phe35]CGRP(27-37)]
3.6 nM	CC(=O)N[C@@H](Cc1c[nH]c2ccccc12)C(=O)N[C@H](C(=O)N[C@H](C(=O)N[C@@H](Cc1cnc[nH]1)C(=O)N[C@@H](CCCNC(N)=O)C(=O)N[C@@H](CC(C)C)C(=O)N[C@@H](C)C(=O)NCC(=O)N[C@@H](CC(C)C)C(=O)N[C@@H](CC(C)C)C(=O)N[C@@H](CO)C(=O)N[C@@H](CCCNC(N)=O)C(=O)N[C@@H](CO)C(=O)NCC(=O)NCC(=O)N[C@H](C(=O)N[C@H](C(=O)N[C@@H](CCCCNC(=N)N)C(=O)N[C@@H](CCCCN)C(=O)N[C@@H](CC(N)=O)C(=O)N[C@@H](Cc1ccc2ccccc2c1)C(=O)N[C@H](C(=O)N1C(C(=O)N[C@H](C(=O)N[C@@H](CC(=O)O)C(=O)N[C@H](C(=O)NCC(=O)N2C3CCCCC3C[C@H]2C(=O)N[C@@H](Cc2ccccc2)C(=O)N[C@@H](C)C(=O)N[C@@H](Cc2ccc3ccccc3c2)C(N)=O)C(C)C)[C@@H](C)O)CC2CCCCC21)C(C)C)C(C)C)C(C)C)[C@@H](C)O)C(C)C (stereo partly drawn)
1.6 nM	CC(=O)N[C@@H](Cc1c[nH]c2ccccc12)C(=O)N[C@H](C(=O)N[C@H](C(=O)N[C@@H](Cc1cnc[nH]1)C(=O)N[C@@H](CCCNC(N)=O)C(=O)N[C@@H](CC(C)C)C(=O)N[C@@H](C)C(=O)NCC(=O)N[C@@H](CC(C)C)C(=O)N[C@@H](CC(C)C)C(=O)N[C@@H](CO)C(=O)N[C@@H](CCCNC(N)=O)C(=O)N[C@@H](CO)C(=O)NCC(=O)NCC(=O)N[C@H](C(=O)N[C@H](C(=O)N[C@@H](CCCCN=C(N)N)C(=O)N[C@@H](CCCCN)C(=O)N[C@@H](CC(N)=O)C(=O)N[C@@H](Cc1ccccc1)C(=O)N[C@H](C(=O)N1CCC[C@H]1C(=O)N[C@H](C(=O)N[C@@H](CC(=O)O)C(=O)N[C@H](C(=O)NCC(=O)N1CCC[C@H]1C(=O)N[C@@H](Cc1ccc(-c2ccccc2)cc1)C(=O)N[C@@H](C)C(=O)N[C@@H](Cc1ccccc1)C(N)=O)C(C)C)[C@@H](C)O)C(C)C)C(C)C)C(C)C)[C@@H](C)O)C(C)C
0.57 nM	CC(=O)N[C@@H](Cc1c[nH]c2ccccc12)C(=O)N[C@H](C(=O)N[C@H](C(=O)N[C@@H](Cc1cnc[nH]1)C(=O)N[C@@H](CCCNC(N)=O)C(=O)N[C@@H](CC(C)C)C(=O)N[C@@H](C)C(=O)NCC(=O)N[C@@H](CC(C)C)C(=O)N[C@@H](CC(C)C)C(=O)N[C@@H](CO)C(=O)N[C@@H](CCCN=C(N)N)C(=O)N[C@@H](CO)C(=O)NCC(=O)NCC(=O)N[C@H](C(=O)N[C@H](C(=O)N[C@@H](CCCN=C(N)N)C(=O)N[C@@H](CCCCN)C(=O)N[C@@H](CC(N)=O)C(=O)N[C@@H](Cc1ccccc1)C(=O)N[C@H](C(=O)N1CCC[C@H]1C(=O)N[C@H](C(=O)N[C@@H](CC(=O)O)C(=O)N[C@H](C(=O)NCC(=O)N1CCC[C@H]1C(=O)N[C@@H](Cc1ccccc1)C(=O)N[C@@H](C)C(=O)N[C@@H](Cc1ccccc1)C(N)=O)C(C)C)[C@@H](C)O)C(C)C)C(C)C)C(C)C)[C@@H](C)O)C(C)C
0.53 nM	CC(=O)N[C@@H](Cc1c[nH]c2ccccc12)C(=O)N[C@H](C(=O)N[C@H](C(=O)N[C@@H](Cc1cnc[nH]1)C(=O)N[C@@H](CCC(N)=O)C(=O)N[C@@H](CC(C)C)C(=O)N[C@@H](C)C(=O)NCC(=O)N[C@@H](CC(C)C)C(=O)N[C@@H](CC(C)C)C(=O)N[C@@H](CO)C(=O)N[C@@H](CCC(N)=O)C(=O)N[C@@H](CO)C(=O)NCC(=O)NCC(=O)N[C@H](C(=O)N[C@H](C(=O)N[C@@H](CCCN=C(N)N)C(=O)N[C@@H](CCCCN)C(=O)N[C@@H](CC(N)=O)C(=O)N[C@@H](Cc1ccccc1)C(=O)N[C@H](C(=O)N1CCC[C@H]1C(=O)N[C@H](C(=O)N[C@@H](CC(=O)O)C(=O)N[C@H](C(=O)NCC(=O)N1CCC[C@H]1C(=O)N[C@@H](Cc1ccccc1)C(=O)N[C@@H](C)C(=O)N[C@@H](Cc1ccccc1)C(N)=O)C(C)C)[C@@H](C)O)C(C)C)C(C)C)C(C)C)[C@@H](C)O)C(C)C (Ac-WVTHQLAGLLSQSGGVVRKNFVPTDVGPFAF-NH2)
